According to ChEMBL document CHEMBL4837239, “Identification of Thieno[3,2-d]pyrimidine Derivatives as Dual Inhibitors of Focal Adhesion Kinase and FMS-like Tyrosine Kinase 3” (J Med Chem, 2021):
Active and inactive are the calls of the source. No cut-off for these calls is given here.

How the values were obtained:
[1] = test system: MV4-11; assay: In vivo antitumor activity against human MV4-11 cells xenografted in mouse assessed as tumor growth inhibition at 20 mg/kg, po; type: functional; details: MV4-11, po
[2] = Toxicity in NSG orthotopic mouse xenografted with human MDA-MB-231 cells assessed as adverse effect at 40 to 70 mg/kg, po once daily measured for 2 weeks; type: organism-based; details: in vivo, 336 h, dose 40-70 mg/kg
[3] = test system: MDA-MB-231; assay: Disruption of focal adhesion of human MDA-MB-231 cells assessed as decrease in F-actin measured after 3 hrs by Alexa Fluor 488-conjugated Ab based fluorescence analysis; type: functional; parameters: scale not given: the % may be the effect or the level left; details: dose 1-10 µM, at 1 to 10 µM
[4] = target: Ephrin type-B receptor 1 (Homo sapiens, UniProt P54762); assay: Inhibition of EphB1 (unknown origin)
[5] = target: T1, Proto-oncogene tyrosine-protein kinase ROS (Homo sapiens, UniProt P08922); assay: Inhibition of ROS (unknown origin) at 0.1 uM
[6] = target: Proto-oncogene tyrosine-protein kinase Src (Homo sapiens, UniProt P12931); assay: Inhibition of Src (unknown origin) at 0.1 uM
[7] = test system: MDA-MB-231; assay: Induction of apoptosis in human MDA-MB-231 cells assessed as cleaved caspase-3 at 0.1 to 10 uM incubated for 24 hrs by Western blot analysis; type: functional, cell-based; details: dose 0.1-10 µM
[8] = test system: MDA-MB-231; assay: Disruption of focal adhesion of human MDA-MB-231 cells assessed as decrease in vinculin measured after 3 hrs by Alexa Fluor 488-conjugated Ab based fluorescence analysis; type: functional, cell-based; details: dose 1-10 µM
[9] = target: Tyrosine-protein kinase JAK1 (Homo sapiens, UniProt P23458); assay: Inhibition of JAK1 (unknown origin)
[10] = target: Ephrin type-B receptor 1 (Homo sapiens) (UniProt P54762); assay: Inhibition of EphB1 (unknown origin) at 0.1 uM
[11] = Oral bioavailability in rat at 5 mg/kg; type: ADME, organism-based; details: in vivo
[12] = test system: BaF3; assay: Antiproliferative activity against mouse Ba/F3 cells harbouring FLT3 ITD mutant assessed as growth inhibition measured after 72 hrs by CellTiter-Glo assay; type: functional; details: Mus musculus, BaF3
[13] = target: Focal adhesion kinase 1 (Homo sapiens, UniProt Q05397); assay: Inhibition of FAK (unknown origin) at 0.1 uM
[14] = test system: T2, Receptor-type tyrosine-protein kinase FLT3 (Homo sapiens), P36888 [D835Y]; assay: Inhibition of FLT3-D835Y mutant (unknown origin) expressed in mouse BaF3 cells assessed as decrease in ERK phosphorylation at 1 nM by Western blot analysis; type: cell-based
T2 sequence (whole entry): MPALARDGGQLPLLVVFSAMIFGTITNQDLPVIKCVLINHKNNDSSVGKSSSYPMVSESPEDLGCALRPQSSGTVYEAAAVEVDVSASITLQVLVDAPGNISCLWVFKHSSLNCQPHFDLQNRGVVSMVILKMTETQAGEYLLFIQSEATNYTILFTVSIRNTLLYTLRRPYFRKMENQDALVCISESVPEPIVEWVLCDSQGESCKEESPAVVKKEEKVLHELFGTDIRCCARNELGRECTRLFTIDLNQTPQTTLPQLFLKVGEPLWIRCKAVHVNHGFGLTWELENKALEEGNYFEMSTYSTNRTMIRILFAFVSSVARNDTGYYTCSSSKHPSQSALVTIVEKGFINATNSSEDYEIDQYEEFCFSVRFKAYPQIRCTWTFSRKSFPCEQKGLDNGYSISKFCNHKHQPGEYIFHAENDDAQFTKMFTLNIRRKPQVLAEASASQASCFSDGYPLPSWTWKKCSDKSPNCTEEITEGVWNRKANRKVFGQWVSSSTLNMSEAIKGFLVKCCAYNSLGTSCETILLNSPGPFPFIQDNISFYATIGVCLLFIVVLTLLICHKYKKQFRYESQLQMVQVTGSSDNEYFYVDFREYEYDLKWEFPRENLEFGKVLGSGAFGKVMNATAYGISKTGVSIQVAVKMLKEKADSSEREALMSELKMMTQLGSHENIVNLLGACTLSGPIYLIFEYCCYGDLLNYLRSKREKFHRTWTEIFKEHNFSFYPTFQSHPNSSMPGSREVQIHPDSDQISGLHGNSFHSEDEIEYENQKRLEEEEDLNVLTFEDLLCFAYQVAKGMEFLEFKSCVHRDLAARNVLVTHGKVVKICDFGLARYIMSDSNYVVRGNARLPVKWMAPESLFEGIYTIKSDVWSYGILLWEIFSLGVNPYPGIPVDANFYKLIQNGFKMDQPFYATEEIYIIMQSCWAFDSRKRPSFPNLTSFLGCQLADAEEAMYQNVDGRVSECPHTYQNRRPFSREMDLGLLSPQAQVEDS

[15] = target: Mitogen-activated protein kinase; ERK1/ERK2 (Homo sapiens) (UniProt P27361+P28482); assay: Inhibition of ERK1/2 autophosphorylation in human MDA-MB-231 cells at 0.5 to 5 uM incubated for 24 hrs by Western blot analysis; type: cell-based; details: dose 0.5-5 µM
[16] = target: T1, Proto-oncogene tyrosine-protein kinase ROS; assay: Inhibition of ROS (unknown origin)
[17] = test system: MDA-MB-231; assay: In vivo antitumor activity against human MDA-MB-231 cells xenografted in Balb/c mouse assessed as tumor volume at 40 mg/kg, po once daily measured for 16 days (reference value: 600 mm^3); type: functional; details: time 16 day
[18] = target: Proto-oncogene tyrosine-protein kinase receptor Ret (Homo sapiens, UniProt P07949); assay: Inhibition of RET (unknown origin)
[19] = target: Casein kinase II subunit alpha (Homo sapiens, UniProt P68400); assay: Inhibition of CK2alpha1 (unknown origin) at 0.1 uM
[20] = test system: BaF3; assay: Antiproliferative activity against mouse Ba/F3 cells harbouring FLT3 ITD D835Y mutant assessed as growth inhibition measured after 72 hrs by CellTiter-Glo assay; type: functional; details: Mus musculus, BaF3
[21] = test system: MDA-MB-231; assay: Antimetastatic activity against human MDA-MB-231 cells expressing firefly luciferase xenografted NSG orthotopic mouse model assessed as reduction in luminescence intensity at lung at 70 mg/kg, po once daily measured for 2 weeks; type: functional, organism-based
[22] = test system: MDA-MB-231; assay: Antimetastatic activity against human MDA-MB-231 cells expressing firefly luciferase xenografted NSG orthotopic mouse model assessed as reduction in luminescence intensity at liver at 70 mg/kg, po once daily measured for 2 weeks; type: functional, organism-based

T1 sequence (P08922 whole entry): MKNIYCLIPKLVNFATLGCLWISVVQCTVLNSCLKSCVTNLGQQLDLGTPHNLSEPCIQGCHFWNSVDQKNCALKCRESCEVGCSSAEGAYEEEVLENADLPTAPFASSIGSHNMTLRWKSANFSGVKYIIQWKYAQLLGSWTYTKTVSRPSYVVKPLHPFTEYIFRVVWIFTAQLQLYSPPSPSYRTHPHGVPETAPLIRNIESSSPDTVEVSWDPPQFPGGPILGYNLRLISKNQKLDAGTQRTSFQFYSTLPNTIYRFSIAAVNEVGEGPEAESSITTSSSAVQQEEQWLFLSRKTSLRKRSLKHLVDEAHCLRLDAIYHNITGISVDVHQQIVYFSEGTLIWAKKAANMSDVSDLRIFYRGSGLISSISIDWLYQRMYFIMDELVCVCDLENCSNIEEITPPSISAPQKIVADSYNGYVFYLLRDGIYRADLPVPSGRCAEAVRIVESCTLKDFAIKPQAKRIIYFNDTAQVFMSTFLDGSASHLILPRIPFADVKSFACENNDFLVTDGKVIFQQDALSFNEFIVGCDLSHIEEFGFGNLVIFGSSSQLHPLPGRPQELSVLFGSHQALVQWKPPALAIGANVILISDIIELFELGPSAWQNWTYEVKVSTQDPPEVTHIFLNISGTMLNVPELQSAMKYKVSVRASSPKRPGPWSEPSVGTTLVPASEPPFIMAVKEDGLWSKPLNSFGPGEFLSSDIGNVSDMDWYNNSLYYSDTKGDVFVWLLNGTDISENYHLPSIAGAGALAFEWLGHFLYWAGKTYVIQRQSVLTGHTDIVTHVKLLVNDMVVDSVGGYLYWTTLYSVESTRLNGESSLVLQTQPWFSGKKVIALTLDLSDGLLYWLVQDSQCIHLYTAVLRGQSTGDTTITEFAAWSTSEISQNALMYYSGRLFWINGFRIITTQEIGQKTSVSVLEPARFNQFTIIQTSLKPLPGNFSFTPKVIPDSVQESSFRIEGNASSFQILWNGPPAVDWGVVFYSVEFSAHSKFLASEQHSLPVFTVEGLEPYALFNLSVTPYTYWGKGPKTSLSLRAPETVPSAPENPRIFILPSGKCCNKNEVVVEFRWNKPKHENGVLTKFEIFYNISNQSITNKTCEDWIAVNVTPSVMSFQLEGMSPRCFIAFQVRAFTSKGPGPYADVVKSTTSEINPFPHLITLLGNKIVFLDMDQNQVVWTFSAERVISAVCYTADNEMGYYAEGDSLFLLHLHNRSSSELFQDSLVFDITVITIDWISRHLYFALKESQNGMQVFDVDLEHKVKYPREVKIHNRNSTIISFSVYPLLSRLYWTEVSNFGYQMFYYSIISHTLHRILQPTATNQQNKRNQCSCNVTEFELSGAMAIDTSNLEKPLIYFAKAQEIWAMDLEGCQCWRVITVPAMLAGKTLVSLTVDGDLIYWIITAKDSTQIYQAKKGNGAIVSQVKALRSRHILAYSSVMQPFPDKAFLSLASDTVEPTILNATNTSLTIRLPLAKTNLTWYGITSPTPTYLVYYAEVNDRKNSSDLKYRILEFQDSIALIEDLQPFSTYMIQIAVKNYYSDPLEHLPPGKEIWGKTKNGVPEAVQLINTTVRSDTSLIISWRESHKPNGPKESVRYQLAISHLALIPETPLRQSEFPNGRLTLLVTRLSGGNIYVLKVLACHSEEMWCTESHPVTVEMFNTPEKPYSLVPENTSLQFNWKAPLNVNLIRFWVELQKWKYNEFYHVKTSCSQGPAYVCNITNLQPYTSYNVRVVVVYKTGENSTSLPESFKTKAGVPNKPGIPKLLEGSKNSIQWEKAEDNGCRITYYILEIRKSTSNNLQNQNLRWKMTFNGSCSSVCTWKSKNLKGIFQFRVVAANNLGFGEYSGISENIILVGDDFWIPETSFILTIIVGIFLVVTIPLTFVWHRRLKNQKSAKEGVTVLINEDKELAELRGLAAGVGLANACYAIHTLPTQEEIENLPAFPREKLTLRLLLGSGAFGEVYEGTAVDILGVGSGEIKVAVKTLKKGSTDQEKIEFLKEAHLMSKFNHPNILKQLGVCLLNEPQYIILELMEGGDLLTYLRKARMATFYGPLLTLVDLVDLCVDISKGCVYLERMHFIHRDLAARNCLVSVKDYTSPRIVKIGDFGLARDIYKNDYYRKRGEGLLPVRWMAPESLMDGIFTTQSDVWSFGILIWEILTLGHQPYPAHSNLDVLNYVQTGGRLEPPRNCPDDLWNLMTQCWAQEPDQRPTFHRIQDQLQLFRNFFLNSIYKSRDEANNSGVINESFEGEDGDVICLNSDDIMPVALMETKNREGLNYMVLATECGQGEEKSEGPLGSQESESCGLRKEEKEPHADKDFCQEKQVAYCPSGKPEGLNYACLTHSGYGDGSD
Sequence of Ephrin type-B receptor 1 (Homo sapiens) (P54762 whole entry): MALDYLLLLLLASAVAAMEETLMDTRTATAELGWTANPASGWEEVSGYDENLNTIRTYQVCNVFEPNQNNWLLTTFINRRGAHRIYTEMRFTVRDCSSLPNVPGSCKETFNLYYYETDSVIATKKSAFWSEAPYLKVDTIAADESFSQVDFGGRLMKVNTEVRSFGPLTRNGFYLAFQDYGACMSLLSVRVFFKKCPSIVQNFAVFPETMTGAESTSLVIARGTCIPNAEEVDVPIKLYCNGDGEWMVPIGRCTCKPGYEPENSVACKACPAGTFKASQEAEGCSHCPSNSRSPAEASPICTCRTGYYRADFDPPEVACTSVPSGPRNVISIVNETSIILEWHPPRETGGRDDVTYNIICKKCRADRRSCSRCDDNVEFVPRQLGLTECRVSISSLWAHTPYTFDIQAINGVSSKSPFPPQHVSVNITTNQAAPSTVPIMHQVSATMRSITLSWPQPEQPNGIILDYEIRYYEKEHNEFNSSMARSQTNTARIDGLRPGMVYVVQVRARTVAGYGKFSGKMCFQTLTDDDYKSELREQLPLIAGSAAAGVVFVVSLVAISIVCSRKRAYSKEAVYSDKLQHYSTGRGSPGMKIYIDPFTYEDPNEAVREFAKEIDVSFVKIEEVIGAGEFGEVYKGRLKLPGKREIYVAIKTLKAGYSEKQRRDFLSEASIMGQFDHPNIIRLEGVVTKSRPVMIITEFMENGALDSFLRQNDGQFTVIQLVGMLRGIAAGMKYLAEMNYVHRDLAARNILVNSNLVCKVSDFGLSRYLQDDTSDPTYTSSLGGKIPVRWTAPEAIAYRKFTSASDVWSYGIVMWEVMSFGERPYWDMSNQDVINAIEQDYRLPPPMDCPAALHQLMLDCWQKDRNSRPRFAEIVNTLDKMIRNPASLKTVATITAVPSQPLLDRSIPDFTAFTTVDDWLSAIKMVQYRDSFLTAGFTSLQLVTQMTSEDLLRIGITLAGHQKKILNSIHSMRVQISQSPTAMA
Sequence of Ephrin type-B receptor 1 (P54762 whole entry): as above
Sequence of Focal adhesion kinase 1 (Q05397 2-1052 limits assumed): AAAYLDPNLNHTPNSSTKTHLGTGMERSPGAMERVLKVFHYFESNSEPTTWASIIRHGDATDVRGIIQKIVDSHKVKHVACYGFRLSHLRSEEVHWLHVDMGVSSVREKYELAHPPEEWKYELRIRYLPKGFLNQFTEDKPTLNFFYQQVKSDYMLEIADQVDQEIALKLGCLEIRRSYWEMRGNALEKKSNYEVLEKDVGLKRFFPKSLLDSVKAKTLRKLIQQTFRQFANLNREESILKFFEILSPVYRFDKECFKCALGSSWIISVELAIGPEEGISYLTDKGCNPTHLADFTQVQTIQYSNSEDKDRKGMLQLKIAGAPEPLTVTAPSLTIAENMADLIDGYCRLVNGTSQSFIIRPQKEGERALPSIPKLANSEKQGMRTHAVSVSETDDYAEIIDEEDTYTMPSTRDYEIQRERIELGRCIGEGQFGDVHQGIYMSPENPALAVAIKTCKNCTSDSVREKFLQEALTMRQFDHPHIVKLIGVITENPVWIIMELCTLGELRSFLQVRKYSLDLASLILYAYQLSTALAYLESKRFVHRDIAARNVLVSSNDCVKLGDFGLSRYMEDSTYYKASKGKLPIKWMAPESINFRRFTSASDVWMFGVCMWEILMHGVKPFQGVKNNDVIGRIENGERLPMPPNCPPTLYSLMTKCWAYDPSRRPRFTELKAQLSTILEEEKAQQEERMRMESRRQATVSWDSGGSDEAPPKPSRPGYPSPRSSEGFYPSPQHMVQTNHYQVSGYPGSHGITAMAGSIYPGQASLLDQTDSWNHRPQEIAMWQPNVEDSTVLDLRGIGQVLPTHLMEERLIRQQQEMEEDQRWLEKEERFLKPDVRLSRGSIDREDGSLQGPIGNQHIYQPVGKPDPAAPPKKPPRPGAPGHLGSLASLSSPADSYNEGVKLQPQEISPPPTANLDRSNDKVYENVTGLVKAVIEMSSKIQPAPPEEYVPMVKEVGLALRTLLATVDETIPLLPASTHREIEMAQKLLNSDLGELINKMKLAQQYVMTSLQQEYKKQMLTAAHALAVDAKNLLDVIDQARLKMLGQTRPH
Sequence of Casein kinase II subunit alpha (P68400 whole entry, looked up): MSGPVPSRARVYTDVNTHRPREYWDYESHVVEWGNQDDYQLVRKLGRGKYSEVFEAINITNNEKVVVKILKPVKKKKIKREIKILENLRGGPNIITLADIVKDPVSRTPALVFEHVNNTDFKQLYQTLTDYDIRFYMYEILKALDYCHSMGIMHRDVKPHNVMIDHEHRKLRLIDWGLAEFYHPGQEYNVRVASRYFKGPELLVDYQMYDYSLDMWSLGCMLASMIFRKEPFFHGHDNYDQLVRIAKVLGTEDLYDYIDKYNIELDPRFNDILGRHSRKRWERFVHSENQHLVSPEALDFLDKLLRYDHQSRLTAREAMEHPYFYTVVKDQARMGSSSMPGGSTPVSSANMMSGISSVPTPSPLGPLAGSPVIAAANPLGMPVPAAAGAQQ

IC50 [4]: 29.8 nM
inhibition [5]: 92.9%
inhibition [6]: 93.1%
IC50 [9]: 1.8 nM
inhibition [10]: 91.1%
bioavailability [11]: 37.1%
GI50 [12]: 4 nM
inhibition [13]: 95.6%
inhibition [14]: Active
inhibition [15]: inactive
IC50 [16]: 22 nM
IC50 [18]: 2.9 nM
inhibition [19]: 95.5%
GI50 [20]: 5.7 nM
SMILES: CCN1CCN(c2ccc(Nc3ncc4scc(-c5cccc(NS(C)(=O)=O)c5)c4n3)cc2)CC1
inhibition in vivo at 20 mg/kg [1]: 65%
Activity [2]: Non-Toxic
Activity [3]: 50%
Activity [7]: Active
Activity [8]: Active
Activity [17]: 400 mm3
Activity [21]: Active
Activity [22]: Active
